Results as given in patent US20110098177A1, “METHODS AND COMPOSITIONS OF PLANT MICRONUTRIENTS” (NOVUS INTERNATIONAL INC., priority 2006, published 2011).
Entries after “also recorded” stand apart in the source; their conditions may differ. Where two headings read alike, the source gives them in different places. Marks after values point to notes of the source that are not given here.

Columns and labels:
Type in all cases: in vivo
[1] = tested on: Aristotle bell pepper; conditions: 1 week after treatment, scale 0 = no visible injury, 10 = plant death
Summary of the method: (§1)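 Florida-47 tomato and Aristotle bell pepper transplants in 2-gal pots with low-nutrient medium (pH 5.36), drip-irrigated; products at three rates in deionized water plus non-ionic surfactant sprayed on newly matured leaves at 3 and 7 WAT. Toxicity scored at 4 WAT (0=no damage, 10=death); foliar tissue analysed at 6 WAT; marketable fruit harvested 4 times (tomato).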

[2] = tested on: Florida-47 tomato; conditions: for Tomato toxicity: 1 week after treatment, scale 0 = no visible injury, 10 = plant death
Summary of the method: as §1

[3] = tested on: Florida-47 tomato; test: Marketable yield per plant, greenhouse Fall 2007, tomato; conditions: for Marketable yield per plant, Tomato: foliar application at 3 and 7 WAT, rates not separated; for Tomato yield compared with control (in words): foliar applications, P<0.05
Protocol: (§2) The following experiments were performed in a green house during the fall of 2007 at GCREC, Balm, University of Florida. Fifteen products, at 3 different application rates were examined. The plot size was 2-gallon pots. Crop set-up, procedures and variables were as follows.
(§3) Transplants of ‘Florida-47’ tomato and ‘Aristotle’ bell pepper plants in the 4-true leaf stage (about 6 inches tall) were planted in 2-gal pots on Aug. 27, 2007. Pots were filled with a commercially available planting medium. This medium was selected based on the mineral composition of the products to be applied without providing significant nutritional inputs to the crops. Irrigation was provided with drip lines delivering between 0.50 and 0.33 gal/day/pot for tomato and bell pepper, respectively, and the crops were irrigated three times per day. No foliar pesticides were necessary.
(§4) There were four control treatments corresponding to each target micronutrient in which non-Fe, non-Mn, non-Zn or non-Cu pots received all other essential nutrients under non-limiting conditions.
(§5) Treatments were applied at three rates (high, medium and low) obtained from the estimated concentration of Zn, Fe, Cu, and Mn foliarly-applied in tomato and bell pepper in field situations (Table 1). Products were weighed and dissolved in 200 ml of deionized water with a non-ionic surfactant and applied to the newly-matured open leaves of each crop at 3 and 7 weeks after transplant (WAT). Treated pots were isolated during application to avoid cross-contamination of other treatments.
(§6) Medium nutrient concentration was determined 1 week before treatment. The mineral composition of the medium was 26.8 ppm NH4—N, 49 ppm NO3—N, 15.8 ppm P, 91.2 ppm K, 82.3 ppm Ca, 58.2 ppm Mg, 23.9 ppm Na, 125.6 ppm S, 1.33 ppm Fe, 0.39 ppm Mn, 0.35 ppm Zn, 0.05 pp, Cu, 0.04 ppm B, 0 ppm Mo, 0.73 ppm Al, and 12.1 ppm Si. The pH of the medium was 5.36 and the electric conductivity was 1.38 mS/cm. The foliar tissue analysis was performed at 6 WAT and the concentration of N, P, K, Mg, Ca, S, B, Zn, Mn, Fe, and Cu was determined by a commercial laboratory. Plant toxicity was determined at 4 WAT by using a 0-10 visual scale, where 0=no visible damage and 10=total plant death. Marketable fruit weight was collected 2 times in bell pepper and 4 times in tomato following USDA standards.
(§7) Data were analyzed using a general linear model, and means were separated using orthogonal contrasts at the 5% significance level.

[4] = tested on: Aristotle bell pepper; test: Marketable yield per plant, greenhouse Fall 2007, bell pepper; conditions: for Marketable yield per plant, Pepper: foliar application at 3 and 7 WAT, rates not separated; for Bell pepper yield compared with control (in words): foliar applications, P<0.05
Protocol: as §2, §3, §4, §5, §6, §7

[5] = tested on: Tygress tomato plants; test: Foliar nutrient concentration at 6 WAT, open-field tomato (Examples 7-10); conditions: 6 WAT, open field; for Foliar B concentration of tomato plants / Foliar Ca concentration of tomato plants / Foliar Cu concentration of tomato plants / Foliar Fe concentration of tomato plants / Foliar K concentration of tomato plants / Foliar Mg concentration of tomato plants / Foliar Mn concentration of tomato plants / Foliar N concentration of tomato plants / Foliar P concentration of tomato plants / Foliar Zn concentration of tomato plants: product rate as Table 17
Summary of the method: (§8)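 Open-field Florida trial, spring 2008: transplants at 4-true-leaf stage on drip-irrigated raised beds were foliar-sprayed at 3 and 5 WAT (BIOX-CM at 4 and 5 WAT) at 60 gal/acre with non-ionic surfactant. Most recent mature leaves were sampled at 6 WAT. Tomato fruit was USDA-graded and analysed for minerals.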

[6] = tested on: Patriot bell pepper plants; test: Foliar nutrient concentration at 6 WAT, open-field bell pepper (Examples 7-10); conditions: for Foliar B concentration of bell pepper plants / Foliar Ca concentration of bell pepper plants / Foliar Cu concentration of bell pepper plants / Foliar Fe concentration of bell pepper plants / Foliar K concentration of bell pepper plants / Foliar Mg concentration of bell pepper plants / Foliar Mn concentration of bell pepper plants / Foliar N concentration of bell pepper plants / Foliar P concentration of bell pepper plants / Foliar Zn concentration of bell pepper plants: product rate as Table 17
Summary of the method: as §8

[7] = tested on: Tygress tomato plants; test: Marketable yield, open-field tomato (Examples 7-10); conditions: open field; for Marketable yield, Tomato: lb/acre/season: BIOX-Z 1.3, Cu 6.7, M 23.0, Fe 3.2, INC 4.0, INZ 0.6, CM 10.0, GZ 1.0, GF 4.0, EDZ 1.4, EDM 23.0
Summary of the method: as §8

CSCCC(O)C(=O)[O-].CSCCC(O)C(=O)[O-].[Cu+2] (stereo not drawn) [BIOX-Cu, Cu-HMTBA]
Pepper toxicity ([1]; High rate): 0 | Pepper toxicity ([1]; Low rate): 0 | Pepper toxicity ([1]; Medium rate): 0 | Tomato toxicity ([2]; High rate): 0 | Tomato toxicity ([2]; Low rate): 0 | Tomato toxicity ([2]; Medium rate): 0 | Foliar injury (in words) ([2]; copper concentration of 0.004% to 0.061% by weight, tomato and bell pepper stated together): no foliar injury | Marketable yield per plant, Tomato [3]: 5.5* lb/plant | Tomato yield compared with control (in words) [3]: significantly increased | Marketable yield per plant, Pepper [4]: 4.0* lb/plant | Bell pepper yield compared with control (in words) [4]: significantly increased | Foliar B concentration of tomato plants [5]: 42 ppm | Foliar Ca concentration of tomato plants [5]: 1.8% | Foliar Cu concentration of tomato plants [5]: 407 b ppm | Foliar Fe concentration of tomato plants [5]: 83 ppm | Foliar K concentration of tomato plants [5]: 5.6% | Foliar Mg concentration of tomato plants [5]: 0.58% | Foliar Mn concentration of tomato plants [5]: 211 ppm | Foliar N concentration of tomato plants [5]: 5.0% | Foliar P concentration of tomato plants [5]: 0.21% | Foliar Zn concentration of tomato plants [5]: 306 ppm | Foliar B concentration of bell pepper plants ([6]; 6 WAT, open field): 42 ppm | Foliar Ca concentration of bell pepper plants ([6]; 6 WAT, open field): 1.8% | Foliar Cu concentration of bell pepper plants ([6]; 6 WAT, open field): 407 b ppm | Foliar Fe concentration of bell pepper plants ([6]; 6 WAT, open field): 83 ppm | Foliar K concentration of bell pepper plants ([6]; 6 WAT, open field): 5.6% | Foliar Mg concentration of bell pepper plants ([6]; 6 WAT, open field): 0.58% | Foliar Mn concentration of bell pepper plants ([6]; 6 WAT, open field): 211 ppm | Foliar N concentration of bell pepper plants ([6]; 6 WAT, open field): 5.0% | Foliar P concentration of bell pepper plants ([6]; 6 WAT, open field): 0.21% | Foliar Zn concentration of bell pepper plants ([6]; 6 WAT, open field): 306 ppm | Tomato marketable yield compared to control, statement [7]: significantly increased tomato marketable yields relative to control; also recorded: significantly higher marketable yield of tomato fruits compared to control | Marketable yield, Tomato [7]: 19.2 a ton/acre

CSCCC(O)C(=O)[O-].CSCCC(O)C(=O)[O-].[Mn+2] (stereo not drawn) [BIOX-M, Mn-HMTBA]
Pepper toxicity ([1]; High rate): 0 | Pepper toxicity ([1]; Low rate): 0 | Pepper toxicity ([1]; Medium rate): 0 | Tomato toxicity ([2]; High rate): 0 | Tomato toxicity ([2]; Low rate): 0 | Tomato toxicity ([2]; Medium rate): 0 | Toxic effect on the plant (in words) ([2]; manganese concentration of 0.015% to 0.124% by weight, both crops): no toxic effect | Marketable yield per plant, Tomato [3]: 5.8* lb/plant | Tomato yield compared with control (in words) [3]: significantly increased | Marketable yield per plant, Pepper [4]: 3.9* lb/plant | Bell pepper yield compared with control (in words) [4]: significantly increased | Foliar concentration of Mn of tomato plants, statement [5]: significant increase; also recorded: highest foliar concentration of Mn; also recorded: significantly higher foliar Mn content | Foliar concentration of P of tomato plants compared to control, statement [5]: significant increase | Foliar B concentration of tomato plants [5]: 70 ppm | Foliar Ca concentration of tomato plants [5]: 1.7% | Foliar Cu concentration of tomato plants [5]: 417 ppm | Foliar Fe concentration of tomato plants [5]: 88 ppm | Foliar K concentration of tomato plants [5]: 4.6 b % | Foliar Mg concentration of tomato plants [5]: 0.56% | Foliar Mn concentration of tomato plants [5]: 470 a ppm | Foliar N concentration of tomato plants [5]: 4.4% | Foliar P concentration of tomato plants [5]: 0.19 b % | Foliar Zn concentration of tomato plants [5]: 266 b ppm | Foliar B concentration of bell pepper plants ([6]; 6 WAT, open field): 59 ppm | Foliar Ca concentration of bell pepper plants ([6]; 6 WAT, open field): 4.2% | Foliar Cu concentration of bell pepper plants ([6]; 6 WAT, open field): 462 ppm | Foliar Fe concentration of bell pepper plants ([6]; 6 WAT, open field): 124 ppm | Foliar K concentration of bell pepper plants ([6]; 6 WAT, open field): 3.4% | Foliar Mg concentration of bell pepper plants ([6]; 6 WAT, open field): 0.52% | Foliar Mn concentration of bell pepper plants ([6]; 6 WAT, open field): 436 ppm | Foliar N concentration of bell pepper plants ([6]; 6 WAT, open field): 4.4% | Foliar P concentration of bell pepper plants ([6]; 6 WAT, open field): 0.25% | Foliar Zn concentration of bell pepper plants ([6]; 6 WAT, open field): 63 ppm | Tomato marketable yield compared to control, statement [7]: significantly higher marketable yield of tomato fruits; also recorded: higher marketable yield of tomato fruits compared to control | Marketable yield, Tomato [7]: 18.1 a ton/acre

EDTA chelated zinc [BIOX-EDZ]
Pepper toxicity ([1]; High rate): 0 | Pepper toxicity ([1]; Low rate): 0 | Pepper toxicity ([1]; Medium rate): 0 | Tomato toxicity ([2]; High rate): 0 | Tomato toxicity ([2]; Low rate): 0 | Tomato toxicity ([2]; Medium rate): 0 | Foliar Zn concentration of tomato plants, statement [5]: All treatments except BIOX-EDZ resulted in significantly higher foliar Zn concentrations | Foliar B concentration of tomato plants [5]: 44 ppm | Foliar Ca concentration of tomato plants [5]: 1.9% | Foliar Cu concentration of tomato plants [5]: 371 ppm | Foliar Fe concentration of tomato plants [5]: 90 ppm | Foliar K concentration of tomato plants [5]: 5.2% | Foliar Mg concentration of tomato plants [5]: 0.69% | Foliar Mn concentration of tomato plants [5]: 207 ppm | Foliar N concentration of tomato plants [5]: 4.9% | Foliar P concentration of tomato plants [5]: 0.24% | Foliar Zn concentration of tomato plants [5]: 310 bc ppm | Foliar Zn concentration of bell pepper plants compared to control, statement ([6]; 6 WAT, open field): significantly higher foliar concentration of Zn | Foliar B concentration of bell pepper plants ([6]; 6 WAT, open field): 59 ppm | Foliar Ca concentration of bell pepper plants ([6]; 6 WAT, open field): 4.2% | Foliar Cu concentration of bell pepper plants ([6]; 6 WAT, open field): 421 ppm | Foliar Fe concentration of bell pepper plants ([6]; 6 WAT, open field): 121 ppm | Foliar K concentration of bell pepper plants ([6]; 6 WAT, open field): 3.2% | Foliar Mg concentration of bell pepper plants ([6]; 6 WAT, open field): 0.47% | Foliar Mn concentration of bell pepper plants ([6]; 6 WAT, open field): 284 ppm | Foliar N concentration of bell pepper plants ([6]; 6 WAT, open field): 4.2% | Foliar P concentration of bell pepper plants ([6]; 6 WAT, open field): 0.24% | Foliar Zn concentration of bell pepper plants ([6]; 6 WAT, open field): 234 a ppm | Tomato marketable yield compared to control, statement [7]: significantly higher than the control tomato harvest | Marketable yield, Tomato [7]: 16.2 ton/acre

Fe-HMTBA [BIOX-Fe]
Foliar B concentration of tomato plants [5]: 21 ppm | Foliar Ca concentration of tomato plants [5]: 0.2% | Foliar Cu concentration of tomato plants [5]: 21 ppm | Foliar Fe concentration of tomato plants [5]: 77 ppm | Foliar K concentration of tomato plants [5]: 8.2% | Foliar Mg concentration of tomato plants [5]: 0.37% | Foliar Mn concentration of tomato plants [5]: 37 ppm | Foliar N concentration of tomato plants [5]: 4.2% | Foliar P concentration of tomato plants [5]: 0.69% | Foliar Zn concentration of tomato plants [5]: 294 ppm | Foliar nutrient concentration: B ([6]; bell pepper plants at 6 WAT): 39 ppm | Foliar nutrient concentration: Ca ([6]; bell pepper plants at 6 WAT): 2.2% | Foliar nutrient concentration: Cu ([6]; bell pepper plants at 6 WAT): 369 ppm | Foliar nutrient concentration: Fe ([6]; bell pepper plants at 6 WAT): 112 ppm | Foliar nutrient concentration: K ([6]; bell pepper plants at 6 WAT): 6.0% | Foliar nutrient concentration: Mg ([6]; bell pepper plants at 6 WAT): 0.66% | Foliar nutrient concentration: Mn ([6]; bell pepper plants at 6 WAT): 251 ppm | Foliar nutrient concentration: N ([6]; bell pepper plants at 6 WAT): 5.0% | Foliar nutrient concentration: P ([6]; bell pepper plants at 6 WAT): 0.20% | Foliar nutrient concentration: Zn ([6]; bell pepper plants at 6 WAT): 318 ppm | Tomato marketable yield compared to control, statement [7]: significantly higher tomato marketable yield compared to control | Marketable yield, Tomato [7]: 17.8 a ton/acre
